Series [1] has as its system acetic acid-induced writhing. The series can be described thus: Analgesic activity by the acetic acid-induced writhing test (K. Takagi et al. method). The series is classed as in vivo, ddY male mice. The source says:
Analgesic activity by the acetic acid-induced writhing test [According to the K. Takagi et al. method [Journal of the Pharmaceutical Society of Japan, 78 553 (1958)], a test compound suspended in the solution including 0.5 % of Tween-80 was orally administered to a group of 8 ddY male mice weighing 20 to 24 g.]
For orientation: In writhing tests, fewer writhes than in controls are read as antinociception.

The next series concerns carregeenin oedema. As to the kind of experiment: Anti-carregeenin oedema activity (Winter method). The series is classed as in vivo, male rats. The source says:
Anti-carregeenin oedema activity [According to the Winter method [Proc. Soc. exp. Biol. Med., 111 544 (1962)], a test compound suspended in the solution including 0.3 % of Tween-80 (a trade name of Atlas Powder Co., U.S.A.) was orally administered to a group of 5 male rats weighing 120 to 140 g.]
*1 Maximum oedema inhibition.
*2 Average oedema inhibition from 2 hrs to 5 hrs after the administration

A short description of another series: toxicity test (LD50). To be noted: mouse, in vivo, mice. The source says:
Therefore, the sym.-triazines of this invention are useful as an anti-inflammatory agent and analgesics.

Where [2] appears, read: Mus musculus, po, read-out: ED50.

From patent US3972882A, “Sym.-triazine carbamates” (Toyama Chemical Co., Ltd., priority 1973, dated 1976) come the findings set out here.

Like-named read-outs stand apart in the source and are kept apart here.

Consider `COC(=O)Nc1nc(OC)nc(OC)n1` [No. 1, methyl 2,4-dimethoxy-sym.-triazinylcarbamate], for which the “Inhibition (writhing)” value in series [1] (100 mg/kg p.o.) is listed as 16.3%; in series [1] (300 mg/kg p.o.) it was 34.7%. Also, the ED50 in series [1] (setting [2]) is more than 300 mg/kg. For the same compound, the “Inhibition of oedema, Peak (maximum oedema inhibition)” value (“Inhibition of oedema, Peak” for short) with carregeenin oedema (70 mg/kg p.o.) is 51.0%; in the series with carregeenin oedema (200 mg/kg p.o.) it was 64.0%; in the series with carregeenin oedema (500 mg/kg p.o.), 61.4%. The “Inhibition of oedema, time of Peak” value with carregeenin oedema (70 mg/kg p.o.), in the series with carregeenin oedema (200 mg/kg p.o.) and in the series on carregeenin oedema (500 mg/kg p.o.) was 2 h throughout. Besides, the “Inhibition of oedema, Mean (average oedema inhibition from 2 hrs to 5 hrs after the administration)” value (from here on “Inhibition of oedema, Mean”) in the series with carregeenin oedema (70 mg/kg p.o.) is reported as 44.6%; with carregeenin oedema (200 mg/kg p.o.) it was 49.5%; with carregeenin oedema (500 mg/kg p.o.), 52.8%.
As to “ethyl 2,4-dimethoxy-sym.-triazinyldithiocarbamate [No. 7]”, in series [1] (33.3 mg/kg p.o.), the “Inhibition (writhing)” value is listed as 16.5%. Besides, the “Inhibition (writhing)” value in series [1] (100 mg/kg p.o.) worked out at 68.4%. The compound also gave an ED50 in series [1] (p.o.) of 67.5 mg/kg. In the series with carregeenin oedema (500 mg/kg p.o.), the “Inhibition of oedema, Peak” value came to 38.0%; the “Inhibition of oedema, time of Peak” value is 2 h; the “Inhibition of oedema, Mean” value is 18.1%.
As to `CCOC(=S)Nc1nc(O)nc(O)n1` [compound 10], in the series with carregeenin oedema (500 mg/kg p.o.), the “Inhibition of oedema, Peak” value came to 13.0% and the “Inhibition of oedema, time of Peak” value came out at 2 h.
Regarding “ethyl 2,4-dihydroxy-sym.-triazinylthioncarbamate [No. 10]”, in the series with carregeenin oedema (500 mg/kg p.o.), the “Inhibition of oedema, Peak” value was 17.5% and the “Inhibition of oedema, time of Peak” value worked out at 2 h.
Regarding `COC(=S)Nc1nc(OC)nc(OC)n1` [No. 3, methyl 2,4-dimethoxy-sym.-triazinylthioncarbamate], the “Inhibition (writhing)” value was determined as 11.9% in series [1] (3.7 mg/kg p.o.), 67.9% in series [1] (11.1 mg/kg p.o.), 69.4% in series [1] (33.3 mg/kg p.o.) and 77.2% in series [1] (100 mg/kg p.o.). For the same compound, the ED50 in series [1] (setting [2]) was found to be 8 mg/kg. The “Inhibition of oedema, Peak” value with carregeenin oedema (70 mg/kg p.o.) stood at 37.2%; in the series on carregeenin oedema (200 mg/kg p.o.) it was 68.8%; in the series with carregeenin oedema (500 mg/kg p.o.), 78.3%. Besides, the “Inhibition of oedema, time of Peak” value in the series with carregeenin oedema (70 mg/kg p.o.), with carregeenin oedema (200 mg/kg p.o.) and in the series with carregeenin oedema (500 mg/kg p.o.) was 2 h throughout. Further, the “Inhibition of oedema, Mean” value was found to be 24.7% in the series with carregeenin oedema (70 mg/kg p.o.), 46.7% in the series on carregeenin oedema (200 mg/kg p.o.) and 61.0% in the series with carregeenin oedema (500 mg/kg p.o.). Besides, the LD50 in “toxicity test (LD50)” (ip, read-out: LD50 i.p.) was determined as 500 mg/kg; in “toxicity test (LD50)” (po, read-out: LD50 p.o.) it was 1050 mg/kg.
As for “methyl 2,4-diphenoxy-sym.-triazinylthioncarbamate [No. 9]”, the “Inhibition of oedema, Peak” value in the series with carregeenin oedema (200 mg/kg p.o.) is 27.1%; with carregeenin oedema (500 mg/kg p.o., listed as 7), 37.4%; in the series on carregeenin oedema (500 mg/kg p.o., listed as 8), 32.2%. Moreover, the “Inhibition of oedema, time of Peak” value with carregeenin oedema (200 mg/kg p.o.) was determined as 5 h; with carregeenin oedema (500 mg/kg p.o.) it was 2 h. Besides, the “Inhibition of oedema, Mean” value in the series on carregeenin oedema (200 mg/kg p.o.) was 17.6%; with carregeenin oedema (500 mg/kg p.o., listed as 7), 27.6%; in the series on carregeenin oedema (500 mg/kg p.o., listed as 8), 23.5%.
For the compound `CCOC(=S)Nc1nc(OC)nc(OC)n1` [compound 4], the “Inhibition (writhing)” value was 7.6% in series [1] (3.7 mg/kg p.o.), 89.4% in series [1] (11.1 mg/kg p.o.), 94.4% in series [1] (33.3 mg/kg p.o.) and 96.9% in series [1] (100 mg/kg p.o.). Besides, the ED50 in series [1] (setting [2]) was found to be 6.6 mg/kg. In addition, the “Inhibition of oedema, Peak” value in the series with carregeenin oedema (70 mg/kg p.o.) was 23.9%; in the series on carregeenin oedema (200 mg/kg p.o.) it was 45.9%; in the series with carregeenin oedema (500 mg/kg p.o.), 64.5%. The “Inhibition of oedema, time of Peak” value in the series on carregeenin oedema (70 mg/kg p.o.), in the series with carregeenin oedema (200 mg/kg p.o.) and in the series on carregeenin oedema (500 mg/kg p.o.) was 2 h in each case. Besides, the “Inhibition of oedema, Mean” value in the series on carregeenin oedema (70 mg/kg p.o.) was 21.8%; in the series on carregeenin oedema (200 mg/kg p.o.) it was 35.4%; in the series on carregeenin oedema (500 mg/kg p.o.), 50.6%. The 50% lethal dose (LD50) in “toxicity test (LD50)” (ip, read-out: LD50 i.p.) turned out to be 490 mg/kg; in “toxicity test (LD50)” (po, read-out: LD50 p.o.) it was 1020 mg/kg.
On to “methyl 2,4-diethoxy-sym.-triazinylthioncarbamate [No. 8]”, for which, in the series with carregeenin oedema (500 mg/kg p.o.), the “Inhibition of oedema, Peak” value came to 16.3% and the “Inhibition of oedema, time of Peak” value came out at 3 h.
With “ethyl 2,4-dimethoxy-sym.-triazinylthiolcarbamate [No. 11]”, the “Inhibition (writhing)” value in series [1] (100 mg/kg p.o.) was found to be 2.9%; in series [1] (300 mg/kg p.o.), 50.3%. Also, the ED50 in series [1] (p.o.) is given as 300 mg/kg.

What is called ED50 is the dose that gives a 50% effect, or the effect in half of the subjects. In general, LD50 refers to the dose expected to kill half of the subjects tested.
